In article PMC9466626, “Discovery of new 1H-pyrazolo[3,4-d]pyrimidine derivatives as anticancer agents targeting EGFR^WT and EGFR^T790M” (Journal of Enzyme Inhibition and Medicinal Chemistry, 2022):

Tests used:
A549 cells = experiment: Cell cycle analysis (flow cytometry, PI staining); assay type: cell-based, human
Procedure: The effect of compound 12b on cell cycle distribution was performed using the propidium iodide (PI) staining technique as described in Supplementary data[56–58]. […]
4.1.2. In-vitro DNA-Flow cytometric (cell cycle) analysis.
h. Then, the tested cells were collected by trypsinization and washed in PBS. Ice-cold absolute
ethanol was used for fixation of the collected cells. The cells were stained with Cycle TESTTM
PLUS DNA Reagent Kit (BD Biosciences, San Jose, CA) according to the manufacturer's
instructions. Cell-cycle distribution was evaluated using a flow cytometer. […]

in vitro = settings: human, WI-38 normal cells
Procedure: In vitro antiproliferative activities
The in vitro antiproliferative activities of all the synthesized compounds against two human
evaluated quantitatively as described in the literature, using MTT assay protocol . two
proliferative activity was assessed quantitatively as follows.
Human cancer cell lines were dropped in 96 -well plates at a density of 3-8 × 10^3 cells/well.
Next, the wells were incubated for 12 h in a 5% CO 2 incubator at 37 °C. Then, for each well, the growth medium was exchanged with 0.1 ml of fresh medium containing graded concentrations of the test compounds to be or equal DMSO and incubated for two days. Then 10 μl MTT solution (5 μg/ml) was added to each well, and the cells were incubated for additional 4 h. The crystals of MTT-formazan were dissolved in 100 μl of DMSO; the absorbance of each well was measured at 490 nm using an automatic ELISA reader system (TECAN, CHE). The IC 50 values were calculated using the nonlinear regression fitting models (Graph Pad, Prism Version 5). The data represented the mean of three independent experiments in triplicate and were expressed as means ± SD.
The results were expressed as growth inhibitory concentration (IC50) values and

[1] = A549, 8.21 µM, 48 h, mean ± SEM
[2] = A549, 8.21 µM, 48 h, mean ± SEM, listed as 12 b

**Q.** What does the source list for `CC(=NNc1nc(Nc2ccccc2)nc2c1cnn2-c1ccccc1)c1ccc(Cl)cc1` [Compound 12b, 4–(2-(1–(4-Chlorophenyl)ethylidene)hydrazinyl)-N,1-diphenyl-1H-pyrazolo[3,4-d]pyrimidin-6-amine]?
**A.** cell cycle arrest, phases (A549 cells; A549): S and G2/M phases; Cell cycle distribution % G2/M (A549 cells; [1]): 28.55%; Cell cycle distribution %G1 (A549 cells; [1]): 28.04%; Cell cycle distribution %S (A549 cells; [1]): 42.39%; Cell cycle distribution %Sub-G1 (A549 cells; [1]): 0.89 ± 0.31%; Cell cycle distribution % G2/M (A549 cells; [2]): 28.55 ± 1.61 %; Cell cycle distribution %G1 (A549 cells; [2]): 28.04 ± 2.78 %; Cell cycle distribution %S (A549 cells; [2]): 42.39 ± 3.50 %; fold decrease in percentage of cells in G1 phase (A549 cells; vs untreated A549, 48 h): ~2 fold; fold increase in % G2/M (A549 cells; vs untreated A549, 48 h): 1.7 fold; fold increase in percentage of cells in S phase (A549 cells; vs untreated A549, 48 h): 1.5 fold; IC50 at 2 days (in vitro): 39.1 µM
